Experimental data: patent US8222278B2, “Treatment of attention-deficit/hyperactivity disorder” (Abbott Laboratories, priority 2008, dated 2012)

System: adults with ADHD
Experiment: Study A: treatment-emergent adverse events (safety dataset)
Protocol: During each visit, blood pressure, heart rate, weight, medication accountability and tolerability, and adverse effects were assessed.
The safety dataset consisted of all subjects who took at least one dose of study drug. The reasons for discontinuation and the treatment-emergent adverse events were summarized by the treatment under which the discontinuation or event was reported.
Treatment-emergent adverse events were those that began or worsened following the first dose of study drug in Period 1. Adverse event monitoring was conducted at each study visit and until 30 days following discontinuation of study drug. Other routine safety assessments included vital signs, electrocardiograms, physical examinations, brief neurological examinations and laboratory tests.

Clc1cc(N2C[C@@H]3CN[C@@H]3C2)cnc1Cl [ABT-894, 3-(5,6-Dichloro-pyridin-3-yl)-1S,5S-3,6-diazabicyclo[3.2.0]heptane]
Any Adverse Event, % of subjects (ABT-894 1 mg QD, N = 46): (69.6) %
Any Adverse Event, number of subjects (ABT-894 1 mg QD, N = 46): 32 subjects
Decreased appetite, % of subjects (ABT-894 1 mg QD, N = 46): (0) %
Decreased appetite, number of subjects (ABT-894 1 mg QD, N = 46): 0 subjects
Diarrhea, % of subjects (ABT-894 1 mg QD, N = 46): (0) %
Diarrhea, number of subjects (ABT-894 1 mg QD, N = 46): 0 subjects
Dizziness, % of subjects (ABT-894 1 mg QD, N = 46): (4.3) %
Dizziness, number of subjects (ABT-894 1 mg QD, N = 46): 2 subjects
Dry mouth, % of subjects (ABT-894 1 mg QD, N = 46): (4.3) %
Dry mouth, number of subjects (ABT-894 1 mg QD, N = 46): 2 subjects
Fatigue, % of subjects (ABT-894 1 mg QD, N = 46): (4.3) %
Fatigue, number of subjects (ABT-894 1 mg QD, N = 46): 2 subjects
Feeling hot and cold, % of subjects (ABT-894 1 mg QD, N = 46): (0) %
Feeling hot and cold, number of subjects (ABT-894 1 mg QD, N = 46): 0 subjects
Feeling jittery, % of subjects (ABT-894 1 mg QD, N = 46): (0) %
Feeling jittery, number of subjects (ABT-894 1 mg QD, N = 46): 0 subjects
Headache, % of subjects (ABT-894 1 mg QD, N = 46): (8.7) %
Headache, number of subjects (ABT-894 1 mg QD, N = 46): 4 subjects
Lethargy, % of subjects (ABT-894 1 mg QD, N = 46): (0) %
Lethargy, number of subjects (ABT-894 1 mg QD, N = 46): 0 subjects
Muscle Strain, % of subjects (ABT-894 1 mg QD, N = 46): (6.5) %
Muscle Strain, number of subjects (ABT-894 1 mg QD, N = 46): 3 subjects
Nasal congestion, % of subjects (ABT-894 1 mg QD, N = 46): (0) %
Nasal congestion, number of subjects (ABT-894 1 mg QD, N = 46): 0 subjects
Nausea, % of subjects (ABT-894 1 mg QD, N = 46): (4.3) %
Nausea, number of subjects (ABT-894 1 mg QD, N = 46): 2 subjects
Parathesia, % of subjects (ABT-894 1 mg QD, N = 46): (0) %
Parathesia, number of subjects (ABT-894 1 mg QD, N = 46): 0 subjects
Sleep disturbances, % of subjects (ABT-894 1 mg QD, N = 46): (4.3) %
Sleep disturbances, number of subjects (ABT-894 1 mg QD, N = 46): 2 subjects
Somnolence, % of subjects (ABT-894 1 mg QD, N = 46): (13.0) %
Somnolence, number of subjects (ABT-894 1 mg QD, N = 46): 6 subjects
Upper RTI, % of subjects (ABT-894 1 mg QD, N = 46): (2.2) %
Upper RTI, number of subjects (ABT-894 1 mg QD, N = 46): 1 subjects
Vomiting, % of subjects (ABT-894 1 mg QD, N = 46): (0) %
Vomiting, number of subjects (ABT-894 1 mg QD, N = 46): 0 subjects
Any Adverse Event, % of subjects (ABT-894 2 mg QD, N = 42): (61.9) %
Any Adverse Event, number of subjects (ABT-894 2 mg QD, N = 42): 26 subjects
Decreased appetite, % of subjects (ABT-894 2 mg QD, N = 42): (0) %
Decreased appetite, number of subjects (ABT-894 2 mg QD, N = 42): 0 subjects
Diarrhea, % of subjects (ABT-894 2 mg QD, N = 42): (4.8) %
Diarrhea, number of subjects (ABT-894 2 mg QD, N = 42): 2 subjects
Dizziness, % of subjects (ABT-894 2 mg QD, N = 42): (9.5) %
Dizziness, number of subjects (ABT-894 2 mg QD, N = 42): 4 subjects
Dry mouth, % of subjects (ABT-894 2 mg QD, N = 42): (0) %
Dry mouth, number of subjects (ABT-894 2 mg QD, N = 42): 0 subjects
Fatigue, % of subjects (ABT-894 2 mg QD, N = 42): (2.4) %
Fatigue, number of subjects (ABT-894 2 mg QD, N = 42): 1 subjects
Feeling hot and cold, % of subjects (ABT-894 2 mg QD, N = 42): (0) %
Feeling hot and cold, number of subjects (ABT-894 2 mg QD, N = 42): 0 subjects
Feeling jittery, % of subjects (ABT-894 2 mg QD, N = 42): (0) %
Feeling jittery, number of subjects (ABT-894 2 mg QD, N = 42): 0 subjects
Headache, % of subjects (ABT-894 2 mg QD, N = 42): (11.9) %
Headache, number of subjects (ABT-894 2 mg QD, N = 42): 5 subjects
Lethargy, % of subjects (ABT-894 2 mg QD, N = 42): (0) %
Lethargy, number of subjects (ABT-894 2 mg QD, N = 42): 0 subjects
Muscle Strain, % of subjects (ABT-894 2 mg QD, N = 42): (0) %
Muscle Strain, number of subjects (ABT-894 2 mg QD, N = 42): 0 subjects
Nasal congestion, % of subjects (ABT-894 2 mg QD, N = 42): (0) %
Nasal congestion, number of subjects (ABT-894 2 mg QD, N = 42): 0 subjects
Nausea, % of subjects (ABT-894 2 mg QD, N = 42): (14.3) %
Nausea, number of subjects (ABT-894 2 mg QD, N = 42): 6 subjects
Parathesia, % of subjects (ABT-894 2 mg QD, N = 42): (0) %
Parathesia, number of subjects (ABT-894 2 mg QD, N = 42): 0 subjects
Sleep disturbances, % of subjects (ABT-894 2 mg QD, N = 42): (14.3) %
Sleep disturbances, number of subjects (ABT-894 2 mg QD, N = 42): 6 subjects
Somnolence, % of subjects (ABT-894 2 mg QD, N = 42): (0) %
Somnolence, number of subjects (ABT-894 2 mg QD, N = 42): 0 subjects
Upper RTI, % of subjects (ABT-894 2 mg QD, N = 42): (7.1) %
Upper RTI, number of subjects (ABT-894 2 mg QD, N = 42): 3 subjects
Vomiting, % of subjects (ABT-894 2 mg QD, N = 42): (2.4) %
Vomiting, number of subjects (ABT-894 2 mg QD, N = 42): 1 subjects
Any Adverse Event, % of subjects (ABT-894 4 mg BID, N = 46): (54.3) %
Any Adverse Event, number of subjects (ABT-894 4 mg BID, N = 46): 25 subjects
Decreased appetite, % of subjects (ABT-894 4 mg BID, N = 46): (0) %
Decreased appetite, number of subjects (ABT-894 4 mg BID, N = 46): 0 subjects
Diarrhea, % of subjects (ABT-894 4 mg BID, N = 46): (2.2) %
Diarrhea, number of subjects (ABT-894 4 mg BID, N = 46): 1 subjects
Dizziness, % of subjects (ABT-894 4 mg BID, N = 46): (2.2) %
Dizziness, number of subjects (ABT-894 4 mg BID, N = 46): 1 subjects
Dry mouth, % of subjects (ABT-894 4 mg BID, N = 46): (2.2) %
Dry mouth, number of subjects (ABT-894 4 mg BID, N = 46): 1 subjects
Fatigue, % of subjects (ABT-894 4 mg BID, N = 46): (8.7) %
Fatigue, number of subjects (ABT-894 4 mg BID, N = 46): 4 subjects
Feeling hot and cold, % of subjects (ABT-894 4 mg BID, N = 46): (0) %
Feeling hot and cold, number of subjects (ABT-894 4 mg BID, N = 46): 0 subjects
Feeling jittery, % of subjects (ABT-894 4 mg BID, N = 46): (0) %
Feeling jittery, number of subjects (ABT-894 4 mg BID, N = 46): 0 subjects
Headache, % of subjects (ABT-894 4 mg BID, N = 46): (8.7) %
